Source: patent publication US9375497B2, “[F-18]-labeled L-glutamic acid, [F-18]-labeled L-glutamine, derivatives thereof and use thereof and processes for their preparation” (BAYER SCHERING PHARMA AKTIENGESELLSCHAFT, priority 2006, dated 2016)

System: murine B16F1 melanoma model in C57BI6 mice
Assay: Tumor enrichment and tissue distribution, B16F1 melanoma model
Settings: for Tumor/tissue quotient, Blood / Tumor/tissue quotient, Brain / Tumor/tissue quotient, Fat / Tumor/tissue quotient, Heart / Tumor/tissue quotient, Intestine / Tumor/tissue quotient, Kidney / Tumor/tissue quotient, Liver / Tumor/tissue quotient, Lung / Tumor/tissue quotient, Muscle / Tumor/tissue quotient, Ovary / Tumor/tissue quotient, Skin / Tumor/tissue quotient, Spleen / Tumor/tissue quotient, Stomach / Tumor/tissue quotient, Uterus: single i.v.; for Tissue uptake, Blood / Tissue uptake, Brain / Tissue uptake, Fat / Tissue uptake, Heart / Tissue uptake, Intestine / Tissue uptake, Kidney / Tissue uptake, Liver / Tissue uptake, Lung / Tissue uptake, Muscle / Tissue uptake, Ovary / Tissue uptake, Skin / Tissue uptake, Spleen / Tissue uptake, Stomach / Tissue uptake, Tumor / Tissue uptake, Uterus: single i.v. 370 kBq; for tumor/blood quotient / tumor/blood quotient, factor higher than for [^14C]5-glutamic acid / tumor/liver quotient / tumor/liver quotient, factor higher than for [^14C]5-glutamic acid: B16F1 melanoma model
Protocol: For the evaluation of the tumor enrichment and the tissue distribution in experimental animals, [^18F]-4-glutamic acid was tested in a murine F9 teratocarcinoma model in NMRI nude mice and a murine B16F1 melanoma model in C57BI6 mice.
For this, 1×10^6 cells (F9) or 5×10^5 cells (B16F1) respectively were suspended in 100 μl of phosphate-buffered physiological saline solution and inoculated subcutaneously into the right, rear flank of the corresponding experimental animal species (NMRI for F9 and 057-BI6 for B16F1) (Berndorff et al. Clin. Cancer Res. 2005, 11, 2005). […] [^18F]-4-Glutamic acid (370 kBq, in 100 μl of physiological saline solution) was administered intravenously to the tail vein. After 15; 60 and 120 min in each case, the animals were killed, organ and tumor removed, weighed and measured for radioactive content.

Structure (SMILES): NC(CC([18F])C(=O)O)C(=O)O (stereo not shown) [[^18F]4-glutamic acid, 4-[F-18]fluoroglutamic acid]
- Tumor/tissue quotient, Blood (0.25 h (times as Table 3)): 1.21
- Tumor/tissue quotient, Brain (0.25 h (times as Table 3)): 4.89
- Tumor/tissue quotient, Fat (0.25 h (times as Table 3)): 3.95
- Tumor/tissue quotient, Heart (0.25 h (times as Table 3)): 1.06
- Tumor/tissue quotient, Intestine (0.25 h (times as Table 3)): 1.19
- Tumor/tissue quotient, Kidney (0.25 h (times as Table 3)): 0.31
- Tumor/tissue quotient, Liver (0.25 h (times as Table 3)): 0.93
- Tumor/tissue quotient, Lung (0.25 h (times as Table 3)): 0.32
- Tumor/tissue quotient, Muscle (0.25 h (times as Table 3)): 1.72
- Tumor/tissue quotient, Ovary (0.25 h (times as Table 3)): 1.03
- Tumor/tissue quotient, Skin (0.25 h (times as Table 3)): 1.49
- Tumor/tissue quotient, Spleen (0.25 h (times as Table 3)): 0.89
- Tumor/tissue quotient, Stomach (0.25 h (times as Table 3)): 1.05
- Tumor/tissue quotient, Uterus (0.25 h (times as Table 3)): 0.56
- Tissue uptake, Blood (0.25 h): 2.93 % dose/g
- Tissue uptake, Brain (0.25 h): 0.73 % dose/g
- Tissue uptake, Fat (0.25 h): 0.92 % dose/g
- Tissue uptake, Heart (0.25 h): 3.36 % dose/g
- Tissue uptake, Intestine (0.25 h): 3.00 % dose/g
- Tissue uptake, Kidney (0.25 h): 11.35 % dose/g
- Tissue uptake, Liver (0.25 h): 3.81 % dose/g
- Tissue uptake, Lung (0.25 h): 11.10 % dose/g
- Tissue uptake, Muscle (0.25 h): 2.19 % dose/g
- Tissue uptake, Ovary (0.25 h): 3.57 % dose/g
- Tissue uptake, Skin (0.25 h): 2.43 % dose/g
- Tissue uptake, Spleen (0.25 h): 4.07 % dose/g
- Tissue uptake, Stomach (0.25 h): 3.41 % dose/g
- Tissue uptake, Tumor (0.25 h): 3.55 % dose/g
- Tissue uptake, Uterus (0.25 h): 7.17 % dose/g
- Tumor/tissue quotient, Blood (1.0 h (times as Table 3)): 5.25
- Tumor/tissue quotient, Brain (1.0 h (times as Table 3)): 4.7
- Tumor/tissue quotient, Fat (1.0 h (times as Table 3)): 14.16
- Tumor/tissue quotient, Heart (1.0 h (times as Table 3)): 3.54
- Tumor/tissue quotient, Intestine (1.0 h (times as Table 3)): 1.56
- Tumor/tissue quotient, Kidney (1.0 h (times as Table 3)): 1.25
- Tumor/tissue quotient, Liver (1.0 h (times as Table 3)): 3.63
- Tumor/tissue quotient, Lung (1.0 h (times as Table 3)): 1.51
- Tumor/tissue quotient, Muscle (1.0 h (times as Table 3)): 4.3
- Tumor/tissue quotient, Ovary (1.0 h (times as Table 3)): 4.38
- Tumor/tissue quotient, Skin (1.0 h (times as Table 3)): 5.43
- Tumor/tissue quotient, Spleen (1.0 h (times as Table 3)): 2.81
- Tumor/tissue quotient, Stomach (1.0 h (times as Table 3)): 4.02
- Tumor/tissue quotient, Uterus (1.0 h (times as Table 3)): 3.84
- Tissue uptake, Blood (1.0 h): 0.48 % dose/g
- Tissue uptake, Brain (1.0 h): 0.49 % dose/g
- Tissue uptake, Fat (1.0 h): 0.18 % dose/g
- Tissue uptake, Heart (1.0 h): 0.71 % dose/g
- Tissue uptake, Intestine (1.0 h): 1.28 % dose/g
- Tissue uptake, Kidney (1.0 h): 2.25 % dose/g
- Tissue uptake, Liver (1.0 h): 0.64 % dose/g
- Tissue uptake, Lung (1.0 h): 1.47 % dose/g
- Tissue uptake, Muscle (1.0 h): 0.53 % dose/g
- Tissue uptake, Ovary (1.0 h): 0.58 % dose/g
- Tissue uptake, Skin (1.0 h): 0.48 % dose/g
- Tissue uptake, Spleen (1.0 h): 0.81 % dose/g
- Tissue uptake, Stomach (1.0 h): 0.59 % dose/g
- Tissue uptake, Tumor (1.0 h): 2.14 % dose/g
- Tissue uptake, Uterus (1.0 h): 0.69 % dose/g
- Tumor/tissue quotient, Blood (2.0 h (times as Table 3)): 7.93
- Tumor/tissue quotient, Brain (2.0 h (times as Table 3)): 3.55
- Tumor/tissue quotient, Fat (2.0 h (times as Table 3)): 8.85
- Tumor/tissue quotient, Heart (2.0 h (times as Table 3)): 5.06
- Tumor/tissue quotient, Intestine (2.0 h (times as Table 3)): 0.87
- Tumor/tissue quotient, Kidney (2.0 h (times as Table 3)): 2.22
- Tumor/tissue quotient, Liver (2.0 h (times as Table 3)): 4.42
- Tumor/tissue quotient, Lung (2.0 h (times as Table 3)): 2.34
- Tumor/tissue quotient, Muscle (2.0 h (times as Table 3)): 6.95
- Tumor/tissue quotient, Ovary (2.0 h (times as Table 3)): 3.02
- Tumor/tissue quotient, Skin (2.0 h (times as Table 3)): 5.94
- Tumor/tissue quotient, Spleen (2.0 h (times as Table 3)): 4.03
- Tumor/tissue quotient, Stomach (2.0 h (times as Table 3)): 4.24
- Tumor/tissue quotient, Uterus (2.0 h (times as Table 3)): 2.59
- Tissue uptake, Blood (2.0 h): 0.16 % dose/g
- Tissue uptake, Brain (2.0 h): 0.36 % dose/g
- Tissue uptake, Fat (2.0 h): 0.16 % dose/g
- Tissue uptake, Heart (2.0 h): 0.28 % dose/g
- Tissue uptake, Intestine (2.0 h): 1.46 % dose/g
- Tissue uptake, Kidney (2.0 h): 0.57 % dose/g
- Tissue uptake, Liver (2.0 h): 0.29 % dose/g
- Tissue uptake, Lung (2.0 h): 0.56 % dose/g
- Tissue uptake, Muscle (2.0 h): 0.24 % dose/g
- Tissue uptake, Ovary (2.0 h): 0.45 % dose/g
- Tissue uptake, Skin (2.0 h): 0.22 % dose/g
- Tissue uptake, Spleen (2.0 h): 0.31 % dose/g
- Tissue uptake, Stomach (2.0 h): 0.30 % dose/g
- Tissue uptake, Tumor (2.0 h): 1.27 % dose/g
- Tissue uptake, Uterus (2.0 h): 0.76 % dose/g
- tumor/blood quotient (1 h p.i.): 5.3
- tumor/blood quotient, factor higher than for [^14C]5-glutamic acid (1 h p.i.): 2
- tumor/liver quotient (1 h p.i.): 3.6
- tumor/liver quotient, factor higher than for [^14C]5-glutamic acid (1 h p.i.): 4.6
- tumor/blood quotient (2 h p.i.): 7.9
- tumor/blood quotient, factor higher than for [^14C]5-glutamic acid (2 h p.i.): 3.5
- tumor/liver quotient (2 h p.i.): 4.4
- tumor/liver quotient, factor higher than for [^14C]5-glutamic acid (2 h p.i.): 5.5
- tumor enrichment (B16F1 melanoma, 1 h after intravenous administration): 2.14 % ID/g
- maximal tumor enrichment (B16 melanoma, after intravenous injection (15 min)): 3.55 % ID/g
